{
  "source": "patent US20100137449A1",
  "about": "“SUBSTITUTED 1,3-CYCLOPENTADIONE MULTI-TARGET PROTEIN KINASE MODULATORS OF CANCER, ANGIOGENESIS AND THE INFLAMMATORY PATHWAYS ASSOCIATED THEREWITH” (METAPROTEOMICS, LLC, priority 2007, published 2010)",
  "test_in_all_cases": "KinaseProfiler Assay",
  "key": {"ACK1(h)": {"target": "ACK1(h) (Homo sapiens, UniProt Q07912)"}, "CaMKIδ(h)": {"target": "CaMKIδ(h) (Homo sapiens, UniProt Q8IU85)", "sequence (Q8IU85 whole entry)": "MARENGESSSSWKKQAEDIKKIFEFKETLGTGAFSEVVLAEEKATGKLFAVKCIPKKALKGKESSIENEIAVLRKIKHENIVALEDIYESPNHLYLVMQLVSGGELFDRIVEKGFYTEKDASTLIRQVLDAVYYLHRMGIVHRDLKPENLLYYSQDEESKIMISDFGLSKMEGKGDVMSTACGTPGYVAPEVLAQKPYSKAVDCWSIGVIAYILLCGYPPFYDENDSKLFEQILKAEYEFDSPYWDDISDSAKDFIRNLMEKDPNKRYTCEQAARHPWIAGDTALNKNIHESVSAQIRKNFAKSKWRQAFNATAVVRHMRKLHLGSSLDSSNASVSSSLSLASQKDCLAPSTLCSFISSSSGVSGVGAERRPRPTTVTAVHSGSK"}, "cKit(D816H)(h)": {"target": "cKit(D816H)(h) (Homo sapiens, UniProt P10721, D816H)", "sequence (P10721 26-976 D816H)": "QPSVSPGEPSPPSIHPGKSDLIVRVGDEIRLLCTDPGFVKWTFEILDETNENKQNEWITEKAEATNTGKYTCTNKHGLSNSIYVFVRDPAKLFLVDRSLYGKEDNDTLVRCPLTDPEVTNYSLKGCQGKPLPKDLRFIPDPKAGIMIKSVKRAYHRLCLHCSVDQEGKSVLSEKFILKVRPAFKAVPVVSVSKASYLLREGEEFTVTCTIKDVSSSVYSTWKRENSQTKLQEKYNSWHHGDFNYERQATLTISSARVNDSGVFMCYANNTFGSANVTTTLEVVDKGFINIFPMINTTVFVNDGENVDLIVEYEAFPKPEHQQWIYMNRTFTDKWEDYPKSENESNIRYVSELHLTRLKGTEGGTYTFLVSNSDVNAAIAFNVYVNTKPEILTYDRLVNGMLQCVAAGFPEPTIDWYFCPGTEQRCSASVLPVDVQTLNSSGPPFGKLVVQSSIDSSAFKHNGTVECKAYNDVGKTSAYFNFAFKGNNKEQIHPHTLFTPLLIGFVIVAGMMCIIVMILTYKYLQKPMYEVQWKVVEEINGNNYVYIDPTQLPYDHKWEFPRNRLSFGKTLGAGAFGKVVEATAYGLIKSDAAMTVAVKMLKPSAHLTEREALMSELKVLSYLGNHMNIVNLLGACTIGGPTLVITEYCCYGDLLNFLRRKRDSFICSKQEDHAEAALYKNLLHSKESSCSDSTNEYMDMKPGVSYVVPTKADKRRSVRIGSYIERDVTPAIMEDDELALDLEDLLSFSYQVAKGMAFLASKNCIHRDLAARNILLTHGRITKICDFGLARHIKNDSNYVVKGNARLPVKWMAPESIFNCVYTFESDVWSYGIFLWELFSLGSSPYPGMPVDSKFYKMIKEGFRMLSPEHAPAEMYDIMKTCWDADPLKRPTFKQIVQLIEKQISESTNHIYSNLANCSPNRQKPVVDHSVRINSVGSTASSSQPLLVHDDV"}, "EGFR(T790M)(h)": {"target": "EGFR(T790M)(h) (Homo sapiens, UniProt P00533, T790M)"}, "EphA3(h)": {"target": "T1, EphA3(h) (Homo sapiens, UniProt P29320)", "T1 sequence (P29320 21-983)": "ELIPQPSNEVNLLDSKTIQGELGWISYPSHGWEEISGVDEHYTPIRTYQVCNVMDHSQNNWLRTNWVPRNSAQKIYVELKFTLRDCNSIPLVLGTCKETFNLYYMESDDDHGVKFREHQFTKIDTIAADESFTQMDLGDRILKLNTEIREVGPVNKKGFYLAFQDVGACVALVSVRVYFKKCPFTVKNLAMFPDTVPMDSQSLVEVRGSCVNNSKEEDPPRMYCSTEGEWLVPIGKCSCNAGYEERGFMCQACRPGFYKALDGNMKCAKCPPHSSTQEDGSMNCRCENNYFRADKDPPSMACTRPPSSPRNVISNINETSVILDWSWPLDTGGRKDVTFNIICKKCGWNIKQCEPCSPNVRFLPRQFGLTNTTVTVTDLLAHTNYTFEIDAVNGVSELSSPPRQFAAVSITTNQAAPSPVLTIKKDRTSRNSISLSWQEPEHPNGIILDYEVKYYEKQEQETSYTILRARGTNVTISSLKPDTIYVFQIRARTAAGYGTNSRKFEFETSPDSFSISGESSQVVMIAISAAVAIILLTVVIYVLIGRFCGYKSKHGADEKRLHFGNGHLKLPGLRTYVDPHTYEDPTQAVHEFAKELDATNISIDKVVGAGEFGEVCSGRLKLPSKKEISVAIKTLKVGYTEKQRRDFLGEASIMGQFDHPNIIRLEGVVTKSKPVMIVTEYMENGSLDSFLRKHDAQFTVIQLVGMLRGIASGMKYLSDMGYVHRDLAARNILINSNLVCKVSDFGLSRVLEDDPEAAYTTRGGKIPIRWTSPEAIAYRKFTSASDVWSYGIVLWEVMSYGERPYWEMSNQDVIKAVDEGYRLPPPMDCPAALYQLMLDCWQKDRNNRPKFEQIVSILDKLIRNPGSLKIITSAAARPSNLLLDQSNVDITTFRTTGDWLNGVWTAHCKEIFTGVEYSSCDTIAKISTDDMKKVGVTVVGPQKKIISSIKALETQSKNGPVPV"}, "FGFR1(V561M)(h)": {"target": "FGFR1(V561M)(h) (Homo sapiens, UniProt P11362, V561M)", "sequence (P11362 22-822 V561M)": "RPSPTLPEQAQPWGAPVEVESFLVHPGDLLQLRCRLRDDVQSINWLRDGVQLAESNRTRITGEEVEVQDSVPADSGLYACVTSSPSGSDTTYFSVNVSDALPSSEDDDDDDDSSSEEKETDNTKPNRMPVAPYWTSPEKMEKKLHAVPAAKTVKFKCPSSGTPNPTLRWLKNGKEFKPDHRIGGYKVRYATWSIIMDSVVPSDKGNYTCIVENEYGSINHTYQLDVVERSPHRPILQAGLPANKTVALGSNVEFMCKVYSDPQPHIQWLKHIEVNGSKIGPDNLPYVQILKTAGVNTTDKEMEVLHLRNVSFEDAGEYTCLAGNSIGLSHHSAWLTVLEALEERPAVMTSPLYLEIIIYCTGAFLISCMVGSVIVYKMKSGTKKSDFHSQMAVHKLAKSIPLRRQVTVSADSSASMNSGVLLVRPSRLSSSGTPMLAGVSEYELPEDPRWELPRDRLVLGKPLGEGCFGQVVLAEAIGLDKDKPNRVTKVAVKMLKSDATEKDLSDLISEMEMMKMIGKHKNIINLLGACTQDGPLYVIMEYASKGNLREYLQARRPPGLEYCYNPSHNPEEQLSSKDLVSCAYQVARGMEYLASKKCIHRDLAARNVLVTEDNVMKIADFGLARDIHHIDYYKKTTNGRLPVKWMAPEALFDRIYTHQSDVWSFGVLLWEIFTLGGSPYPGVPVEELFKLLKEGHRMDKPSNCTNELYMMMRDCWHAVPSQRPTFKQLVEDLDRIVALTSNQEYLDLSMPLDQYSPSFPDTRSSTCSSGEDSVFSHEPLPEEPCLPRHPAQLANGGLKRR"}, "FGFR2(h)": {"target": "FGFR2(h) (Homo sapiens, UniProt P21802)", "sequence (P21802 22-821)": "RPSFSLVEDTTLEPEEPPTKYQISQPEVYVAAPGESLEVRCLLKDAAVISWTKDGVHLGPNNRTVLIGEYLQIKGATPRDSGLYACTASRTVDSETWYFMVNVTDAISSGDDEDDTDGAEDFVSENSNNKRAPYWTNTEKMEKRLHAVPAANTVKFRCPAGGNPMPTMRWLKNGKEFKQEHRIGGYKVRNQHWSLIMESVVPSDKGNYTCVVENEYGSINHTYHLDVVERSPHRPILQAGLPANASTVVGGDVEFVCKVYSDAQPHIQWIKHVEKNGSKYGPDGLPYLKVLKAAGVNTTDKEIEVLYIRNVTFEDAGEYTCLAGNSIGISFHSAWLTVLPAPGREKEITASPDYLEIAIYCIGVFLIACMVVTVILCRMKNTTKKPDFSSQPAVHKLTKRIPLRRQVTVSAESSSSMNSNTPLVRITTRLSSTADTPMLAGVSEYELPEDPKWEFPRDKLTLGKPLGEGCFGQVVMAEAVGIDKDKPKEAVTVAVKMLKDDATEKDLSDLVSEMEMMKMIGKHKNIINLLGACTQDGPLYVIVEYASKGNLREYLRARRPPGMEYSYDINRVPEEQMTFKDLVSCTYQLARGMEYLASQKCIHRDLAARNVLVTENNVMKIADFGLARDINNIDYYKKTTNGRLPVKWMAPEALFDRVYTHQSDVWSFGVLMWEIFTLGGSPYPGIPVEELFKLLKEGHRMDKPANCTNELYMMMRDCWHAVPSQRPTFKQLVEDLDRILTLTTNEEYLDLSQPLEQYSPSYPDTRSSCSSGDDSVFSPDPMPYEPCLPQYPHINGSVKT"}, "FGFR3(h)": {"target": "FGFR3(h) (Homo sapiens, UniProt P22607)"}, "MAPK1(h), ERK1": {"target": "MAPK1(h), ERK1 (Homo sapiens, UniProt P27361)", "sequence (P27361 whole entry)": "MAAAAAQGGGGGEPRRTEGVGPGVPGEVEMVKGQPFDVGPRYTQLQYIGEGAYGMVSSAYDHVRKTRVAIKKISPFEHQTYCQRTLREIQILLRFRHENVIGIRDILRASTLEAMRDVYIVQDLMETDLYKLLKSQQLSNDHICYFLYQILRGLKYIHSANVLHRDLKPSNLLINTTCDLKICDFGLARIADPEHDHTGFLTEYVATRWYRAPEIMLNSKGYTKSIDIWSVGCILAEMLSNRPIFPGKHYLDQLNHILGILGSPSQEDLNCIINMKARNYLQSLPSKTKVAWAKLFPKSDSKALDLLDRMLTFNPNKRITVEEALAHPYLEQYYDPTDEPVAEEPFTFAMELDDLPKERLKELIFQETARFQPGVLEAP"}, "MLCK(h)": {"target": "MLCK(h)"}, "MSK1(h)": {"target": "MSK1(h) (Homo sapiens, UniProt O75582)"}, "PKCβI(h)": {"target": "PKCβI(h) (Homo sapiens, UniProt P05771)"}, "PKCδ(h)": {"target": "PKCδ(h) (Homo sapiens, UniProt Q05655)"}, "ROCK-I(h)": {"target": "ROCK-I(h) (Homo sapiens, UniProt Q13464)", "sequence (Q13464 whole entry)": "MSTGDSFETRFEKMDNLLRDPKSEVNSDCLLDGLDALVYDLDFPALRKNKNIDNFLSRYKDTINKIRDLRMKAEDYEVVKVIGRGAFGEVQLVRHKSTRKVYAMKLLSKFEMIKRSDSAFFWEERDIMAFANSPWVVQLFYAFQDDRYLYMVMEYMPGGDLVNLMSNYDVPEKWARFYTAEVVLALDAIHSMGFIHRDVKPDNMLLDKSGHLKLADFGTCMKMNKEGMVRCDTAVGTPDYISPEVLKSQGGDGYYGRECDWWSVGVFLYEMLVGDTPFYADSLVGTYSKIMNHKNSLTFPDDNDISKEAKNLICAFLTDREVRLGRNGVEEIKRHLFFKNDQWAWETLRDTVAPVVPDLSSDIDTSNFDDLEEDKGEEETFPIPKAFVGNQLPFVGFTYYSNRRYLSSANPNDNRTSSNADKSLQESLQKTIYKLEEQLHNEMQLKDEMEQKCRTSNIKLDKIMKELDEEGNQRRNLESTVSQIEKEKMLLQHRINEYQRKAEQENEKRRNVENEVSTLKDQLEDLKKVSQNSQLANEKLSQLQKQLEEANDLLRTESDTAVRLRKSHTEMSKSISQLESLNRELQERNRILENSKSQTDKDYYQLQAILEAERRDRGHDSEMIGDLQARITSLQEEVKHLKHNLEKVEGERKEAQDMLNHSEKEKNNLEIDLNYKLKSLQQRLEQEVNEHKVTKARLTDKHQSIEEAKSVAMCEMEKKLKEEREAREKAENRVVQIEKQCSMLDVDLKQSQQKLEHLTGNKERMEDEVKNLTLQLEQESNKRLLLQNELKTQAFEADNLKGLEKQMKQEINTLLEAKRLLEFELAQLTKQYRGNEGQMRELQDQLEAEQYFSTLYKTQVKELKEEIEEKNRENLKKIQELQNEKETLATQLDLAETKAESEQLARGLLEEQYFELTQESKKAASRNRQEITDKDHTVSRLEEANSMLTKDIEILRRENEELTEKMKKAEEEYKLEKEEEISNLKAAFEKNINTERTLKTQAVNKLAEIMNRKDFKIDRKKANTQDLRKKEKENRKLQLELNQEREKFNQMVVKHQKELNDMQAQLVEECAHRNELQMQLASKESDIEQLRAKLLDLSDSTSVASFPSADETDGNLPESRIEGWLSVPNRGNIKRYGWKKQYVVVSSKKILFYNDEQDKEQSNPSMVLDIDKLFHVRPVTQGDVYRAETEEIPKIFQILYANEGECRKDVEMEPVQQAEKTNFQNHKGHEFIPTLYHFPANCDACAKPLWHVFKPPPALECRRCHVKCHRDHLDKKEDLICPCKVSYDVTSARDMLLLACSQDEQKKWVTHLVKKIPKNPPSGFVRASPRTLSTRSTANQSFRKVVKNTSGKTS"}},
  "data": [
    {"compound": "CC(C)CCC(=O)[C@]1(O)C(O)=C(C(=O)C(C)C)C(=O)[C@H]1CCC(C)C", "note": "[TH2, tetrahydroiso-cohumulone]", "values": [
      {"measurement": "kinase inhibition", "setting": "ACK1(h); 1 μg/ml", "result": "117% of control"},
      {"measurement": "kinase inhibition", "setting": "ACK1(h); 5 μg/ml", "result": "124% of control"},
      {"measurement": "kinase inhibition", "setting": "ACK1(h); 25 μg/ml", "result": "97% of control"},
      {"measurement": "kinase inhibition", "setting": "ACK1(h); 50 μg/ml", "result": "86% of control"},
      {"measurement": "kinase inhibition", "setting": "ACK1(h); 100 μg/ml", "result": "81% of control"},
      {"measurement": "kinase inhibition", "setting": "CaMKIδ(h); 1 μg/ml", "result": "95% of control"},
      {"measurement": "kinase inhibition", "setting": "CaMKIδ(h); 5 μg/ml", "result": "88% of control"},
      {"measurement": "kinase inhibition", "setting": "CaMKIδ(h); 25 μg/ml", "result": "101% of control"},
      {"measurement": "kinase inhibition", "setting": "CaMKIδ(h); 50 μg/ml", "result": "105% of control"},
      {"measurement": "kinase inhibition", "setting": "CaMKIδ(h); 100 μg/ml", "result": "98% of control"},
      {"measurement": "kinase inhibition", "setting": "cKit(D816H)(h); 1 μg/ml", "result": "123% of control"},
      {"measurement": "kinase inhibition", "setting": "cKit(D816H)(h); 5 μg/ml", "result": "116% of control"},
      {"measurement": "kinase inhibition", "setting": "cKit(D816H)(h); 25 μg/ml", "result": "104% of control"},
      {"measurement": "kinase inhibition", "setting": "cKit(D816H)(h); 50 μg/ml", "result": "114% of control"},
      {"measurement": "kinase inhibition", "setting": "cKit(D816H)(h); 100 μg/ml", "result": "108% of control"},
      {"measurement": "kinase inhibition", "setting": "EGFR(T790M)(h); 1 μg/ml", "result": "106% of control"},
      {"measurement": "kinase inhibition", "setting": "EGFR(T790M)(h); 5 μg/ml", "result": "104% of control"},
      {"measurement": "kinase inhibition", "setting": "EGFR(T790M)(h); 25 μg/ml", "result": "104% of control"},
      {"measurement": "kinase inhibition", "setting": "EGFR(T790M)(h); 50 μg/ml", "result": "100% of control"},
      {"measurement": "kinase inhibition", "setting": "EGFR(T790M)(h); 100 μg/ml", "result": "102% of control"},
      {"measurement": "kinase inhibition", "setting": "EphA3(h); 1 μg/ml", "result": "93% of control"},
      {"measurement": "kinase inhibition", "setting": "EphA3(h); 5 μg/ml", "result": "91% of control"},
      {"measurement": "kinase inhibition", "setting": "EphA3(h); 25 μg/ml", "result": "98% of control"},
      {"measurement": "kinase inhibition", "setting": "EphA3(h); 50 μg/ml", "result": "87% of control"},
      {"measurement": "kinase inhibition", "setting": "EphA3(h); 100 μg/ml", "result": "84% of control"},
      {"measurement": "kinase inhibition", "setting": "FGFR1(V561M)(h); 1 μg/ml", "result": "105% of control"},
      {"measurement": "kinase inhibition", "setting": "FGFR1(V561M)(h); 5 μg/ml", "result": "107% of control"},
      {"measurement": "kinase inhibition", "setting": "FGFR1(V561M)(h); 25 μg/ml", "result": "95% of control"},
      {"measurement": "kinase inhibition", "setting": "FGFR1(V561M)(h); 50 μg/ml", "result": "79% of control"},
      {"measurement": "kinase inhibition", "setting": "FGFR1(V561M)(h); 100 μg/ml", "result": "75% of control"},
      {"measurement": "kinase inhibition", "setting": "FGFR2(h); 1 μg/ml", "result": "111% of control"},
      {"measurement": "kinase inhibition", "setting": "FGFR2(h); 5 μg/ml", "result": "98% of control"},
      {"measurement": "kinase inhibition", "setting": "FGFR2(h); 25 μg/ml", "result": "102% of control"},
      {"measurement": "kinase inhibition", "setting": "FGFR2(h); 50 μg/ml", "result": "96% of control"},
      {"measurement": "kinase inhibition", "setting": "FGFR2(h); 100 μg/ml", "result": "78% of control"},
      {"measurement": "kinase inhibition", "setting": "FGFR3(h); 1 μg/ml", "result": "94% of control"},
      {"measurement": "kinase inhibition", "setting": "FGFR3(h); 5 μg/ml", "result": "92% of control"},
      {"measurement": "kinase inhibition", "setting": "FGFR3(h); 25 μg/ml", "result": "67% of control"},
      {"measurement": "kinase inhibition", "setting": "FGFR3(h); 50 μg/ml", "result": "64% of control"},
      {"measurement": "kinase inhibition", "setting": "FGFR3(h); 100 μg/ml", "result": "51% of control"},
      {"measurement": "kinase inhibition", "setting": "MAPK1(h), ERK1; 1 μg/ml", "result": "93% of control"},
      {"measurement": "kinase inhibition", "setting": "MAPK1(h), ERK1; 5 μg/ml", "result": "83% of control"},
      {"measurement": "kinase inhibition", "setting": "MAPK1(h), ERK1; 25 μg/ml", "result": "72% of control"},
      {"measurement": "kinase inhibition", "setting": "MAPK1(h), ERK1; 50 μg/ml", "result": "75% of control"},
      {"measurement": "kinase inhibition", "setting": "MAPK1(h), ERK1; 100 μg/ml", "result": "67% of control"},
      {"measurement": "kinase inhibition", "setting": "MLCK(h); 1 μg/ml", "result": "98% of control"},
      {"measurement": "kinase inhibition", "setting": "MLCK(h); 5 μg/ml", "result": "96% of control"},
      {"measurement": "kinase inhibition", "setting": "MLCK(h); 25 μg/ml", "result": "105% of control"},
      {"measurement": "kinase inhibition", "setting": "MLCK(h); 50 μg/ml", "result": "93% of control"},
      {"measurement": "kinase inhibition", "setting": "MLCK(h); 100 μg/ml", "result": "86% of control"},
      {"measurement": "kinase inhibition", "setting": "MSK1(h); 1 μg/ml", "result": "98% of control"},
      {"measurement": "kinase inhibition", "setting": "MSK1(h); 5 μg/ml", "result": "103% of control"},
      {"measurement": "kinase inhibition", "setting": "MSK1(h); 25 μg/ml", "result": "92% of control"},
      {"measurement": "kinase inhibition", "setting": "MSK1(h); 50 μg/ml", "result": "64% of control"},
      {"measurement": "kinase inhibition", "setting": "MSK1(h); 100 μg/ml", "result": "52% of control"},
      {"measurement": "kinase inhibition", "setting": "PKCβI(h); 1 μg/ml", "result": "105% of control"},
      {"measurement": "kinase inhibition", "setting": "PKCβI(h); 5 μg/ml", "result": "110% of control"},
      {"measurement": "kinase inhibition", "setting": "PKCβI(h); 25 μg/ml", "result": "93% of control"},
      {"measurement": "kinase inhibition", "setting": "PKCβI(h); 50 μg/ml", "result": "95% of control"},
      {"measurement": "kinase inhibition", "setting": "PKCβI(h); 100 μg/ml", "result": "92% of control"},
      {"measurement": "kinase inhibition", "setting": "PKCδ(h); 1 μg/ml", "result": "111% of control"},
      {"measurement": "kinase inhibition", "setting": "PKCδ(h); 5 μg/ml", "result": "110% of control"},
      {"measurement": "kinase inhibition", "setting": "PKCδ(h); 25 μg/ml", "result": "97% of control"},
      {"measurement": "kinase inhibition", "setting": "PKCδ(h); 50 μg/ml", "result": "92% of control"},
      {"measurement": "kinase inhibition", "setting": "PKCδ(h); 100 μg/ml", "result": "80% of control"},
      {"measurement": "kinase inhibition", "setting": "ROCK-I(h); 1 μg/ml", "result": "110% of control"},
      {"measurement": "kinase inhibition", "setting": "ROCK-I(h); 5 μg/ml", "result": "111% of control"},
      {"measurement": "kinase inhibition", "setting": "ROCK-I(h); 25 μg/ml", "result": "110% of control"},
      {"measurement": "kinase inhibition", "setting": "ROCK-I(h); 50 μg/ml", "result": "100% of control"},
      {"measurement": "kinase inhibition", "setting": "ROCK-I(h); 100 μg/ml", "result": "88% of control"}
    ]}
  ]
}
